Data on five compounds can be found in patent publication US20170280722A1, “COMPOSITIONS AND METHODS FOR CONTROL OF SAND FLIES AND OTHER BLOOD SUCKING INSECTS” (GENESIS LABORATORIES, INC., priority 2010, published 2017).

In data set [1] the test system is P. argentipes 1st instar larvae. The data set is described as follows: Larval bioassay with feces of insecticide treated R. rattus (feed through). In kind it is in vivo. The note with it: for Mean ± SEM survival (days) of P. arg larvae post-exposure / P. argentipes larvae mortality (%): feces of R. rattus day-1 post treatment. The method, then: In the first study, a feed through study comparing diflubenzuron, fipronil, ivermectin, and eprinomectin was conducted on rats (Rattus rattus). Fecal samples were collected after three (3) consecutive days of administration of the trial products. The efficacy of the drugs administered during the blind study underwent testing in larval bioassays with P. argentipes 1st instar larvae. Commercially available chicken feed was mixed with the appropriate concentrations of each insecticide compound and used as is in the trial.
Twelve (12) locally purchased rats (Rattus rattus) of mixed sex were utilized in a small study testing the efficacy of four feed through insecticides. Five treatment groups of two rats each were randomly identified and fed diets consisting of locally available chicken feed treated with one of the following compounds: diflubenzuron (0.048%), fipronil (0.015%), ivermectin (0.025%), and eprinomectin (0.01% and 0.025%). Two rats served as control and were fed only chicken feed. Rats were fed 20 g of their assigned diet daily at the same time, with daily consumption and spillage calculated for a period of three (3) days. Sand fly analyses were conducted simultaneously.
[…] Collected feces were dried at approximately 40° C. in an oven then ground into a fine powder utilizing a pestle and mortar and frozen at −20° C. until larval bioassays were initiated.
Larval bioassay pots were prepared using 48 mm, 100 g round Dibbi jars. Dishes were prepared by burning several small holes into the bottom of the dish with a soldering iron and filling them with a small layer of plaster (¼ to ½ inch depth). Approximately 15-20 holes were punctured into the lids using 24 gauge needles. For simpler mortality counting, pots were quartered and each quadrant numbered using an ultra fine black Sharpie.
For each individual post-treatment bioassays, thirteen (13) dishes were loaded with 10 day old 1st instar P. argentipes larvae; twelve (12) pots were provided with approximately 0.005 g of the treated feces, with two sample pots per treated bandicoot rat, and one overall control sample fed only standard larval diet. See Table 1 for sample/treatment correlations. Larvae were loaded into bioassay pots and provided with their designated treatment sample. Mortality counts of larvae were conducted every 24 hours post-treatment until 100% mortality, or pupation, was reached.

Data set [2] in a line: Acceptance and tolerance of imidacloprid diet by sand rats. It is filed as in vivo, Psammomys obesus. From the text: (§1) The test insecticide, imidacloprid at 250 ppm (0.025%) was incorporated into the feed together with orange, yellow, or green dye and fed to rats housed in standard laboratory caging. The treatment groups consisted of 6 males and 9 females; Controls: 3 males and 4 females with a body weight between 125-250 g.
(§2) DESIGN—Five sand rats were provided the reformulated diet for each of the treatment levels (50 ppm, 100 ppm, 250 ppm). Five sand rats were provided with control diets without imidacloprid. Two additional rats were provided with control diets containing green dye.
(§3) Feces were collected from the Alpha-Dri bedding for the last 5 days of the 7 day treatment period. Feces were weighed and transferred to a plastic bag labeled with the animal's cage identification number and stored frozen at −20° C.

Data set [3] has as its system P. papatasi larvae. Kind of data set: Larval bioassay with feces of sand rats fed imidacloprid diet. In kind it is in vivo. How it is done:
A second trial was carried out using sand rats (Psammomys obesus) as the carrier of sand flies (P. papatasi) and imidacloprid as the insecticide. This rodent species was targeted since it serves as the source of blood meals for adult sand flies and its feces serves as a platform for larval development in Middle East ecosystems.
as §1, §2, §3
Bioassays of the larval groups comprised: four imidacloprid treatments (0, 50, 100, 250 ppm) (number of replicates per assay n=5), one control group (n=8), and one green dye treatment (n=2). These bioassays were conducted with 1st and 2-3rd instar larvae and were repeated three times. Bioassays were conducted in 6 well culture plates (Corning, Inc) with 5 ml of plaster of Paris in the bottom of each well. The plaster was saturated with distilled water before the experiment, and was blotted with filter paper to remove standing water immediately before use. The effect of imidacloprid treatment on 1st and 2nd-3rd instar larvae was tested. The control group was provided using standard larval diet. This allowed comparison of sand fly survival between those feeding on feces from sand rats that fed on non treated feed and those fed on standard sand fly diet. First instar larvae were obtained by adding 50 eggs to each well and allowed to hatch and fed on regular diet for 2-3 days. At this time ca. 0.1 g of crushed pellets or control feed was added. Second-3rd instar larvae were obtained by letting 1st instar larvae grow on standard diet in the wells until moulted. At this, time crushed pellets or control feed (0.1 g) was added. […] The wells of the plate were covered with parafilm which was punctured with a needle to allow for ventilation. The wells were kept in a humidified room (26° C./75% RH) inside a covered tube which contained a saturated sponge. The container was placed in an environmental chamber at 28 C, 90% RH, and a photoperiod of 14:10 (L:D) h. […] Alimentation was noted by observation of the presence of frass in the vials and dark material in the guts of the larvae.

For data set [4] the following is noted: cited from earlier work.

As to `O=C(NC(=O)c1c(F)cccc1F)Nc1ccc(Cl)cc1` [diflubenzuron], in data set [1] (480 ppm), the “Mean ± SEM survival (days) of P. arg larvae post-exposure” value is reported as 9.75 ± 0.71 days and the “P. argentipes larvae mortality (%)” value was 100%.
In the case of `O=[N+]([O-])NC1=NCCN1Cc1ccc(Cl)nc1` [imidacloprid], the “Difference in fecal production between treatment groups” value in data set [2] (P=0.1199) is on record as “no significant difference”. In addition, the “Health of sand rats on diet” value in data set [2] (diets 50, 100, 250 ppm, 7 day treatment) is on record as “without any apparent health abnormalities”. Moreover, the “Survivorship for 1st instar larvae” value in data set [3] (by day 5, feces from sand rats administered 100 ppm) was below 5%; in data set [3] (by day 5, feces from sand rats administered 250 ppm), below 5%. Moreover, the “Survivorship for 2nd/3rd instar larvae” value in data set [3] (by day 7, feces from sand rats administered 250 ppm) worked out at 10%. The same compound registered a Larval mortality in data set [3] (by seven days, feces from diets containing 250 ppm) of 90%. Besides, the “Larvicidal effect of feces for 1st instar larvae” value in data set [3] (sand rats fed diets of 100 ppm and 250 ppm) is “rapidly and highly larvicidal”. For the same compound, the Residue in blood result in data set [4] (three days post oral treatment) is on record as “zero residue”.
For `CC1(C)C(C=C(Cl)Cl)C1C(=O)OCc1cccc(Oc2ccccc2)c1` (stereo not shown) [permethrin], the “Time within which the majority of the product is excreted” value in data set [4] (rodents, oral treatment) was at most 48 h. In addition, in data set [4] (topical), the “Absorption by the skin” value is reported as “not readily absorbed by the skin”.
Turning to eprinomectin, the “Mean ± SEM survival (days) of P. arg larvae post-exposure” value in data set [1] (100 ppm) amounted to 12.65 ± 0.70 days; in data set [1] (250 ppm), 10.70 ± 0.38 days. The “P. argentipes larvae mortality (%)” value in data set [1] (100 ppm) and in data set [1] (250 ppm) was 100% in each case.
As for ivermectin, in data set [1] (250 ppm), the “Mean ± SEM survival (days) of P. arg larvae post-exposure” value amounted to 7.40 ± 0.11 days and the “P. argentipes larvae mortality (%)” value is recorded as 100%. Further, in data set [1] (feces of R. rattus fed 0.025% in feed), the “Day of observation by which 100% larval mortality was reached” value was at most 8 days.
